Laboratory results as given in article PMC6858373 (Scientific Reports, 2019).
Where a name gives a salt, the structure may show the parent alone. Read-outs that look alike come from different tables or passages of the source.

Columns and labels:
[1] = target: full-length P. pyralis luciferase (Photinus pyralis, UniProt P08659, K549A/L550V/N119G/N50D/S548I); type: cell-based
Clone V cells = conditions: human
in vitro = conditions: human
[2] = target: T1, FGF14:Nav1.6 C-tail complex (Homo sapiens, UniProt Q92915+Q9UQD0); assay: Split-luciferase complementation assay (LCA) in Clone V double stable HEK293 cells; type: cell-based; conditions: for Split Luciferase Assay Z-score Set 1 / Split Luciferase Assay Z-score Set 2: normalized to on-plate 0.3% DMSO controls; for Z-score (LCA primary screening): 30 µM, average of primary screening (n = 2), vs on-plate 0.3% DMSO; for Z-score (LCA primary screening) / EMax (% Luminescence): 384-well; for EMax (% Luminescence): agonists, Clone V cells, normalized to DMSO
T1 construct: polymerase chain reaction (PCR) amplification of the FGF14 open reading frame (nt 1–855); C-terminal fragment of Nav1.6 (amino acids 1763–1976) fused with CD4ΔC-tail (amino acids 1–395); expressed in transfected cells

[3] = CC_NCI screening, normalized to on-plate 0.3% DMSO controls
[4] = CC_NCI screening, biological replicate Set 1
[5] = CC_NCI screening, biological replicate Set 1, normalized to on-plate 0.3% DMSO controls (n=16 per plate)
[6] = CC_NCI screening, biological replicate Set 2
[7] = CC_NCI screening, biological replicate Set 2, normalized to on-plate 0.3% DMSO controls (n=16 per plate)
[8] = average of Set 1 and Set 2, normalized to 0.3% DMSO controls

full-length P. pyralis luciferase, sequence (P08659 whole entry N50D/N119G/S548I/K549A/L550V, looked up): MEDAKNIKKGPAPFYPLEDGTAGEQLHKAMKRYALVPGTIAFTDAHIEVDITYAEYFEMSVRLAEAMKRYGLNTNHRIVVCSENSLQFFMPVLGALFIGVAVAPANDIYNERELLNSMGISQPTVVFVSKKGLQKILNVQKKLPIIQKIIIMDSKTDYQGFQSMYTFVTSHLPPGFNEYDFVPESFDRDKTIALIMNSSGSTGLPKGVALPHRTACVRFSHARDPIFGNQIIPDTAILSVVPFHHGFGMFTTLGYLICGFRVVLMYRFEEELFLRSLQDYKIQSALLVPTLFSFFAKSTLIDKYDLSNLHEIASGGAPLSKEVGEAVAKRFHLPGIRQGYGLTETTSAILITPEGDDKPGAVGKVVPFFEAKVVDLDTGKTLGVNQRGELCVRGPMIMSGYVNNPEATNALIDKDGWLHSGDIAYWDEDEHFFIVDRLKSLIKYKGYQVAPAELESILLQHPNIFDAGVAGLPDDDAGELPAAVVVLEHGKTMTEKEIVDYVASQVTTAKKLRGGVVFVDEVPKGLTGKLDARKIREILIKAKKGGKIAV
T1 sequence (Q92915 1-252 isoform Q92915-2): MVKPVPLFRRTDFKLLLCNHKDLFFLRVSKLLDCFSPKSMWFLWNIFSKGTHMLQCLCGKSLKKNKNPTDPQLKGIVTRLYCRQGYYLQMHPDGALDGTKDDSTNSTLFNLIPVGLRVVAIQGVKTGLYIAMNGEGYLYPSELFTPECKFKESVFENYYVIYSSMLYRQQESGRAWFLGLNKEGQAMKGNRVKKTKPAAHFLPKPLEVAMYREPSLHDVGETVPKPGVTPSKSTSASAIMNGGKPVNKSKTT
T1 sequence (Q9UQD0 1763-1976 limits assumed): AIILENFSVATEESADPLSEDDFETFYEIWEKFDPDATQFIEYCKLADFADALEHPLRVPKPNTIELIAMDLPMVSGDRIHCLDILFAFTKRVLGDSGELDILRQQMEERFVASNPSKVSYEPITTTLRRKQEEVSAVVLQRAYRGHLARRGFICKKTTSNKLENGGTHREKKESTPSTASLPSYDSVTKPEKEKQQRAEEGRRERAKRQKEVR

| SMILES | Luciferase Assay % Lum (full-length luciferase counter-screen) [1, 3] | Luciferase Assay Z-score (full-length luciferase counter-screen) [1, 3] | Toxicity Assay Z-score (CTB cell viability) (Clone V cells; 16 h, 30 µM) | viability at 16 h, 30 µM (in vitro; Clone V cells) | Split Luciferase Assay Z-score Set 1 [2, 4] | Split Luciferase Assay % Lum Set 1 [2, 5] | Split Luciferase Assay Z-score Set 2 [2, 6] | Split Luciferase Assay %Lum Set 2 [2, 7] | Split Luciferase Assay %Lum Avg [2, 8] | viability at 16 h, 30 µM (in vitro) | further results |
| --- | --- | --- | --- | --- | --- | --- | --- | --- | --- | --- | --- |
| CS(=O)(=O)OCCCCOS(C)(=O)=O [Busulfan] | 97.98% | -0.26 | 0.92 | 107% | -0.50 | 93.82% | 1.01 | 112.35% | 103.09% |  |  |
| Cc1c[nH]c(-c2cnc(NCCNc3ccc(C#N)cn3)nc2-c2ccc(Cl)cc2Cl)n1 [CHIR 99021] | 70.15% | -3.82 | 1.07 |  | -4.98 | 38.37% | -5.60 | 31.21% | 34.79% | 108% |  |
| CCCCCOC(=O)Nc1nc(=O)n([C@@H]2O[C@H](C)[C@@H](O)[C@H]2O)cc1F [Capecitabine] | 100.06% | 0.01 | 1.00 | 107% | 1.96 | 124.26% | 1.17 | 114.43% | 119.35% |  |  |
| CC(C)C[C@H](NC(=O)[C@H](CCc1ccccc1)NC(=O)CN1CCOCC1)C(=O)N[C@@H](Cc1ccccc1)C(=O)N[C@@H](CC(C)C)C(=O)[C@@]1(C)CO1 [Carfilzomib] | 97.18% | -0.36 |  |  | -0.68 | 91.64% | -1.62 | 80.10% | 85.87% |  | Toxicity Assay Z-score (CTB cell viability) (Clone V cells): 1.05; viability (in vitro): 108% |
| O=NN(CCCl)C(=O)NCCCl [Carmustine] | 102.90% | 0.37 |  |  | 0.55 |  | 0.24 |  |  |  | Toxicity Assay Z-score (CTB cell viability) (Clone V cells): 2.39; viability (in vitro): 117%; Split Luciferase Assay % Lum Set 1 [2]: 106.86%; Split Luciferase Assay %Lum Avg [2]: 104.93%; Split Luciferase Assay %Lum Set 2 [2]: 102.99% |
| O=C(O)CCCc1ccc(N(CCCl)CCCl)cc1 [Chlorambucil, reference compound] | 97.90% | -0.27 |  |  | 13.12 | 262.32% | 11.67 | 243.43% | 252.88% |  | Toxicity Assay Z-score (CTB cell viability) (Clone V cells): 0.71; viability (in vitro): 105%; Z-score (LCA primary screening) [2]: 12.39; EMax (% Luminescence) [2]: 252.88 % Luminescence; EC50 ([2]; estimated, 8-point dose response 0.25-30 µM, n = 4 per concentration, library compounds, read-out: EC50): 16.4 µM |
| Nc1ccn([C@@H]2O[C@H](CO)[C@@H](O)[C@@H]2O)c(=O)n1 [Cytarabine hydrochloride] | 93.77% | -0.80 | 1.12 |  | -0.50 | 93.82% | 0.16 | 101.95% | 97.88% | 108% |  |
| CN(C)/N=N/c1[nH]cnc1C(N)=O [Dacarbazine] |  |  | 0.82 |  | 3.01 |  | 2.70 | 133.16% | 135.23% | 106% | Luciferase Assay % Lum (full-length luciferase counter-screen) [1]: 99.29%; Luciferase Assay Z-score (full-length luciferase counter-screen) [1]: -0.09 |
| Nc1ncn([C@H]2C[C@H](O)[C@@H](CO)O2)c(=O)n1 [Decitabine, reference compound] | 110.67% | 1.37 | 0.87 | 106% | 6.88 | 185.13% | 7.95 | 197.66% | 191.40% |  | EC50 [2]: 28.8 µM; Z-score (LCA primary screening) [2]: 7.41; EMax (% Luminescence) [2]: 191.40 % Luminescence |
| C[C@@H](CN1CC(=O)NC(=O)C1)N1CC(=O)NC(=O)C1 [Dexrazoxane] |  |  | 2.09 |  | 1.26 | 115.56% | 1.51 | 118.60% | 117.08% | 115% | Luciferase Assay % Lum (full-length luciferase counter-screen) [1]: 109.07%; Luciferase Assay Z-score (full-length luciferase counter-screen) [1]: 1.16 |
| C#Cc1cccc(Nc2ncnc3cc(OCCOC)c(OCCOC)cc23)c1 [ERLOTINIB] | 80.96% | -2.44 | 0.46 | 103% | -0.76 | 90.56% | -1.53 | 81.14% | 85.85% |  |  |
| O=c1[nH]cc(F)c(=O)[nH]1 [Fluorouracil] | 111.63% | 1.49 | 0.61 |  | 0.64 | 107.95% | 1.34 | 116.51% | 112.23% | 104% |  |
| CS(=O)(=O)c1ccc(C(=O)Nc2ccc(Cl)c(-c3ccccn3)c2)c(Cl)c1 [GDC-0449] | 95.45% | -0.58 | 0.95 |  | 3.10 |  | 2.02 | 124.84% | 131.61% | 107% |  |
| Nc1ccn([C@@H]2O[C@H](CO)[C@@H](O)C2(F)F)c(=O)n1 [Gemcitabine hydrochloride] | 102.42% | 0.31 | 2.40 | 117% | 0.29 | 103.60% | -0.43 | 94.67% | 99.13% |  |  |
